From the NIST ThermoML archive (doi:10.1016/j.jct.2014.07.010)
Numbers after ± are expanded uncertainties.

Experiment: osmotic coefficient (dimensionless); mn = molality of the nth substance listed, in mol/kg
Conditions: 298.15 K, Liquid, isopiestic method

O=S(=O)([O-])[O-].[K+].[K+] [potassium sulfate] + O
Conditions	osmotic coefficient
m1 = 0.4526	0.693 ± 0.015
m1 = 0.4667	0.692 ± 0.015
m1 = 0.4747	0.691 ± 0.015
m1 = 0.5108	0.686 ± 0.016
m1 = 0.5495	0.682 ± 0.016
m1 = 0.5708	0.68 ± 0.016
m1 = 0.6064	0.677 ± 0.016
m1 = 0.6321	0.675 ± 0.016
m1 = 0.6366	0.673 ± 0.016
m1 = 0.6529	0.673 ± 0.016
